Data taken from PubChem BioAssay AID2060325 (Molecular Pharmacology Branch, DTP, NCI, 2025).
Values joined by “and” are separate entries in the source; they are usually repeats but may differ in a detail not shown here. Equal entries are not always repeated. Each block holds one compound with its values, some of them ahead of it.

Test system: SK-OV-3 multi-cell spheroids, viability
Assay: Anticancer human tumor SK-OV-3 cell line growth inhibition [IpAb];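 for viability, T/C: viability read after seven days of drug exposure; percent of DMSO vehicle control luminescence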
Conditions: for viability, T/C: stronger effect = lower value
Excerpt: Combinatorial screen of targeted agents with ipatasertib and abemaciclib in multi-cell type tumor spheroids
A high-throughput screen of multi-cell type tumor spheroids was designed to identify active combinations of targeted small molecules and ipatasertib or abemaciclib. Complex spheroids include a stromal component modeled by human endothelial cells (HUVEC) and fibroblasts modeled by human mesenchymal stem cells (MSCs). The concentration ranges selected for each drug and investigational agent were based upon clinically achievable concentrations if the clinical Cmax of the agent was known.
Compounds. The drugs and investigational agents: ipatasertib (NSC767898), abemaciclib(NSC768073), selumetinib (NSC741078), trametinib (758246), adavosertib (NSC754352), everolimus (NSC733504), sapanisertib (NSC764658), vemurafenib (NSC761431), venetoclax (NSC766270), copanlisib (NSC809693), apelisib (NSC765974), palbociblib (NSC758247), vemurafenib (NSC761431), dabrafenib (NSC764134), ravoxertinib (NSC781343), BMS-387032 (NSC767048), sotorasib (NSC818433), talazoparib (NSC767125) and afursertib (NSC778305), were obtained from the National Cancer Institute (NCI) Developmental Therapeutics Program Chemical Repository. The FDA-approved anticancer drug set is available from the NCI Developmental Therapeutics Program. […] The stock solutions were prepared in dimethyl sulfoxide (DMSO, Sigma-Aldrich, St. Louis, MO, cat. D2650) at 800-fold the tested concentration and stored at -70 degrees C prior to their use. All drugs and investigational agents were tested over a range starting from a high concentration at or near the clinical Cmax and decreasing in half-log increments. If the clinical Cmax for an agent had not been determined, the highest concentration tested was 10 microM.
NCI60 Cell Culture. NCI60 cell lines were obtained from the NCI Developmental Therapeutics Program Tumor Repository. For each lot of cells, the Repository performed Applied Biosystems AmpFLSTR Identifiler testing with PCR amplification to confirm consistency with the published Identifier STR profile for each cell line. Cells were kept in continuous culture for no more than 20 passages. The optimal seeding densities for each of the cell lines at each time point assessed were determined prior to performing the concentration response studies. Briefly, the NCI60 human tumor lines were grown as monolayers in RPMI 1640 medium supplemented with 10% FBS and 2 mmol/L L-glutamine.
An additional 9 lines were from the NCI60 cell line panel including MDA-MB-231 breast carcinoma, MDA-MB-468 breast carcinoma, MCF7 breast carcinoma, Hs578T breast carcinoma, MALME-3M melanoma, SK-MEL-2 melanoma, SK-OV-3 ovarian carcinoma, DU-145 prostate carcinoma, PC-3 prostate carcinoma, all cell lines along with major genetic alterations are listed on Table 2. Pooled donor human umbilical vein endothelial cells (HUVEC, Lonza, cat. CC-2519) and human mesenchymal stem cells (hMSC, Lonza, cat. PT-2501) were purchased from Lonza (Walkersville, MD).
PDMR cell lines were grown in complete medium (DC medium): Dulbecco's modified Eagle's medium (DMEM)/F12 supplemented with 5% fetal bovine serum (FBS), 2 mM L-glutamine, 100 U/mL penicillin and 100 µg/ml streptomycin, 0.4 µg/ml hydrocortisone, 10 ng/ml epidermal growth factor (EGF) recombinant human protein, 24 µg/mL adenine, and 0.1 mg/mL primocin. During culture from frozen stock vials, PDMR cells were cultured in the same medium containing 10 µM Y-27632 (see Table 3). The PDCs were cultured in complete DMEM/F12 media without 10 microM Y-27632 dihydrochloride for at least two passages prior to the screen. The pooled donor HUVEC and hMSC were cultured in endothelial cell growth medium 2 (PromoCell, Heidelberg, Germany, cat. C-22011) and mesenchymal stem cell growth medium 2 (PromoCell, cat. C-28009), respectively. For all experiments, HUVEC and hMSC were used at passages </=5.
[…]

[1] = curve of first compound, second compound 0.1 µM
[2] = curve of first compound, second compound 0.316 µM
[3] = curve of first compound, second compound 1 µM
[4] = second compound 0.1 µM, first compound 0.0316 µM
[5] = second compound 0.1 µM, first compound 0.1 µM
[6] = second compound 0.316 µM, first compound 0.0316 µM
[7] = second compound 0.316 µM, first compound 0.1 µM
[8] = second compound 1 µM, first compound 0.0316 µM
[9] = second compound 1 µM, first compound 0.1 µM

IC50 (curve of compound): 291 nM and 337 nM
SMILES: Cc1nc(NC(=O)N2CCCC2C(N)=O)sc1-c1ccnc(C(C)(C)C(F)(F)F)c1 (configuration not stated)
viability, T/C (compound 0.0316 µM): 91.9% and 91.3%
viability, T/C (compound 0.1 µM): 78.5% and 80.2%
viability, T/C (compound 0.316 µM): 47.3% and 49%
viability, T/C (compound 1 µM): 20.7% and 26.9%
viability, T/C (compound 3.16 µM): 10.9% and 10.7%
viability, T/C (compound 10 µM): 5.21% and 4.93%

SMILES: C=CCn1c(=O)c2cnc(Nc3ccc(N4CCN(C)CC4)cc3)nc2n1-c1cccc(C(C)(C)O)n1 + CC(C)NCC(C(=O)N1CCN(c2ncnc3c2C(C)CC3O)CC1)c1ccc(Cl)cc1
IC50 [1]: 59.1 nM
IC50 [2]: < 31.6 nM
IC50 [3]: < 31.6 nM
IC50 (curve of first compound, second compound 3.16 µM): < 31.6 nM
IC50 (curve of first compound, second compound 10 µM): < 31.6 nM
viability, T/C [4]: 66.1%
viability, T/C [5]: 36.5%
viability, T/C (second compound 0.1 µM, first compound 0.316 µM): 10%
viability, T/C (second compound 0.1 µM, first compound 1 µM): 7.27%
viability, T/C (second compound 0.1 µM, first compound 3.16 µM): 4.83%
viability, T/C (second compound 0.1 µM, first compound 10 µM): 6.07%
viability, T/C [6]: 37.5%
viability, T/C [7]: 24.6%
viability, T/C (second compound 0.316 µM, first compound 0.316 µM): 6.94%
viability, T/C (second compound 0.316 µM, first compound 1 µM): 7.44%
viability, T/C (second compound 0.316 µM, first compound 3.16 µM): 6.92%
viability, T/C (second compound 0.316 µM, first compound 10 µM): 6.99%
viability, T/C [8]: 19.2%
viability, T/C [9]: 13.9%
viability, T/C (second compound 1 µM, first compound 0.316 µM): 4.18%
viability, T/C (second compound 1 µM, first compound 1 µM): 6.74%
viability, T/C (second compound 1 µM, first compound 3.16 µM): 7.21%
viability, T/C (second compound 1 µM, first compound 10 µM): 6.84%
viability, T/C (second compound 3.16 µM, first compound 0.0316 µM): 13.8%
viability, T/C (second compound 3.16 µM, first compound 0.1 µM): 8.92%
viability, T/C (second compound 3.16 µM, first compound 0.316 µM): 2.61%
viability, T/C (second compound 3.16 µM, first compound 1 µM): 3.21%
viability, T/C (second compound 3.16 µM, first compound 3.16 µM): 8.27%
viability, T/C (second compound 3.16 µM, first compound 10 µM): 5.57%
viability, T/C (second compound 10 µM, first compound 0.0316 µM): 8.99%
viability, T/C (second compound 10 µM, first compound 0.1 µM): 4.85%
viability, T/C (second compound 10 µM, first compound 0.316 µM): 1.17%
viability, T/C (second compound 10 µM, first compound 1 µM): 2.53%
viability, T/C (second compound 10 µM, first compound 3.16 µM): 4.96%
viability, T/C (second compound 10 µM, first compound 10 µM): 3.52%

SMILES: CC(C)n1nc(-c2ccc3oc(N)nc3c2)c2c(N)ncnc21 + CCN1CCN(Cc2ccc(Nc3ncc(F)c(-c4cc(F)c5nc(C)n(C(C)C)c5c4)n3)nc2)CC1
IC50 (curve of first compound, second compound 0.01 µM): 1.65 nM
IC50 (curve of first compound, second compound 0.0316 µM): 1.23 nM
IC50 [1]: 0.577 nM
IC50 [2]: 0.381 nM
IC50 [3]: < 0.316 nM
viability, T/C (second compound 0.01 µM, first compound 0.000316 µM): 76.7%
viability, T/C (second compound 0.01 µM, first compound 0.001 µM): 59.3%
viability, T/C (second compound 0.01 µM, first compound 0.00316 µM): 37.8%
viability, T/C (second compound 0.01 µM, first compound 0.01 µM): 19%
viability, T/C (second compound 0.01 µM, first compound 0.0316 µM): 8.77%
viability, T/C (second compound 0.01 µM, first compound 0.1 µM): 7.65%
viability, T/C (second compound 0.0316 µM, first compound 0.000316 µM): 64.4%
viability, T/C (second compound 0.0316 µM, first compound 0.001 µM): 54.8%
viability, T/C (second compound 0.0316 µM, first compound 0.00316 µM): 31.3%
viability, T/C (second compound 0.0316 µM, first compound 0.01 µM): 16.1%
viability, T/C (second compound 0.0316 µM, first compound 0.0316 µM): 11.6%
viability, T/C (second compound 0.0316 µM, first compound 0.1 µM): 7.01%
viability, T/C (second compound 0.1 µM, first compound 0.000316 µM): 55.4%
viability, T/C (second compound 0.1 µM, first compound 0.001 µM): 45.4%
viability, T/C (second compound 0.1 µM, first compound 0.00316 µM): 28.1%
viability, T/C (second compound 0.1 µM, first compound 0.01 µM): 16%
viability, T/C [4]: 10.8%
viability, T/C [5]: 7.2%
viability, T/C (second compound 0.316 µM, first compound 0.000316 µM): 51.5%
viability, T/C (second compound 0.316 µM, first compound 0.001 µM): 41.4%
viability, T/C (second compound 0.316 µM, first compound 0.00316 µM): 26.2%
viability, T/C (second compound 0.316 µM, first compound 0.01 µM): 18.1%
viability, T/C [6]: 14.3%
viability, T/C [7]: 9.24%
viability, T/C (second compound 1 µM, first compound 0.000316 µM): 40.7%
viability, T/C (second compound 1 µM, first compound 0.001 µM): 34.2%
viability, T/C (second compound 1 µM, first compound 0.00316 µM): 27.9%
viability, T/C (second compound 1 µM, first compound 0.01 µM): 21.2%
viability, T/C [8]: 15.9%
viability, T/C [9]: 13.2%

SMILES: CCN1CCN(Cc2ccc(Nc3ncc(F)c(-c4cc(F)c5nc(C)n(C(C)C)c5c4)n3)nc2)CC1
viability, T/C (compound 0.01 µM): 87.1% [middle of 13 runs]
viability, T/C (compound 0.0316 µM): 71.2% [middle of 13 runs]
viability, T/C (compound 0.1 µM): 54.8% [middle of 13 runs]
viability, T/C (compound 0.316 µM): 53.6% [middle of 13 runs]
viability, T/C (compound 1 µM): 43.7% [middle of 13 runs]
